# Source: ChEMBL document CHEMBL5380830, “Development and Therapeutic Implications of Tyrosine Kinase 2 Inhibitors” (J Med Chem, 2023)
# Key:
# [1] = Inhibition of IFNalpha induced STAT phosphorylation in HEK293 cells by Western blotting analysis; format: cell-based; details: Homo sapiens
# [2] = Inhibition of IFN-gamma induced STAT phosphorylation in HEK293 cells by Western blotting analysis; format: cell-based; details: Homo sapiens
# [3] = Inhibition of IL-2 induced STAT phosphorylation in HEK293 cells by Western blotting analysis; format: cell-based; details: Homo sapiens
# [4] = Inhibition of IL-23 induced STAT phosphorylation in HEK293 cells by Western blotting analysis; format: cell-based; details: Homo sapiens
# [5] = target: Janus Kinase (JAK) (Homo sapiens, UniProt P52333+P23458+O60674+P29597); test: Inhibition of JAK JH1 (unknown origin); format: protein assay
# [6] = target: T1, JAK2/TYK2 (Homo sapiens, UniProt O60674+P29597); test: Inhibition of JAK2/TYK2 signal transduction pathway in human PBMC cells assessed as IL-12 induced p-STAT4 level incubated for 30 mins; format: cell-based
# [7] = target: T2, Non-receptor tyrosine-protein kinase TYK2 (Homo sapiens, UniProt P29597); test: Binding affinity to human wild-type partial length TYK2 JH2 (G556 to D888 residues) expressed in mammalian expression system by KINOMEscan assay
# [8] = target: T3, Tyrosine-protein kinase JAK2 (Homo sapiens, UniProt O60674); test: Inhibition of JAK2 JH1 (unknown origin) at 10 uM relative to control
# [9] = target: T1, JAK2/TYK2; test: Inhibition of JAK2/TYK2 signal transduction pathway in human PBMC cells assessed as reduction in GM-CSF induced p-STAT5 level incubated for 20 mins; format: cell-based
# [10] = target: T4, Tyrosine-protein kinase JAK1 (Homo sapiens, UniProt P23458); test: Binding affinity to JAK1 JH2 (unknown origin)
# [11] = target: T2, Non-receptor tyrosine-protein kinase TYK2; test: Inhibition of TYK2 JH1 (unknown origin) at 10 uM relative to control
# [12] = target: T1, JAK2/TYK2; test: Inhibition of JAK2/TYK2 signal transduction pathway in human PBMC cells assessed as IL-12 induced p-STAT4 level by AlphaLISA assay; format: cell-based
# [13] = target: T1, JAK2/TYK2; test: Inhibition of JAK2/TYK2 signal transduction pathway in human PBMC cells assessed as IL-23 induced p-STAT4 level by AlphaLISA assay; format: cell-based
# [14] = target: T2, Non-receptor tyrosine-protein kinase TYK2; test: Binding affinity to His-tagged human recombinant TYK2 JH2 (556 to 871 residues) incubated for 10 hrs by microplate reader based analysis
# [15] = target: T2, Non-receptor tyrosine-protein kinase TYK2; test: Inhibition of TYK2 JH2 in human KIT225 cells assessed as reduction of IFNalpha induced STAT1 phosphorylation by AlphaLISA assay; format: cell-based
# [16] = Metabolic stability in human liver microsomes assessed as compound remaining after 60 mins; format: ADME, Microsome; details: read-out: Stability
# [17] = Cmax in ICR mouse at 30 mg/kg, IG by LC/MS/MS analysis; format: ADME, organism-based; parameters: dose 30 mg/kg, route ig; details: in vivo, po
# [18] = Half life in ICR mouse at 30 mg/kg, IG by LC/MS/MS analysis; format: ADME, organism-based; details: in vivo, po
# [19] = target: T4, Tyrosine-protein kinase JAK1; test: Inhibition of JAK1 (unknown origin)
# [20] = target: T5, Tyrosine-protein kinase JAK3 (Homo sapiens, UniProt P52333); test: Inhibition of JAK3 (unknown origin)
# T5 sequence (P52333 whole entry): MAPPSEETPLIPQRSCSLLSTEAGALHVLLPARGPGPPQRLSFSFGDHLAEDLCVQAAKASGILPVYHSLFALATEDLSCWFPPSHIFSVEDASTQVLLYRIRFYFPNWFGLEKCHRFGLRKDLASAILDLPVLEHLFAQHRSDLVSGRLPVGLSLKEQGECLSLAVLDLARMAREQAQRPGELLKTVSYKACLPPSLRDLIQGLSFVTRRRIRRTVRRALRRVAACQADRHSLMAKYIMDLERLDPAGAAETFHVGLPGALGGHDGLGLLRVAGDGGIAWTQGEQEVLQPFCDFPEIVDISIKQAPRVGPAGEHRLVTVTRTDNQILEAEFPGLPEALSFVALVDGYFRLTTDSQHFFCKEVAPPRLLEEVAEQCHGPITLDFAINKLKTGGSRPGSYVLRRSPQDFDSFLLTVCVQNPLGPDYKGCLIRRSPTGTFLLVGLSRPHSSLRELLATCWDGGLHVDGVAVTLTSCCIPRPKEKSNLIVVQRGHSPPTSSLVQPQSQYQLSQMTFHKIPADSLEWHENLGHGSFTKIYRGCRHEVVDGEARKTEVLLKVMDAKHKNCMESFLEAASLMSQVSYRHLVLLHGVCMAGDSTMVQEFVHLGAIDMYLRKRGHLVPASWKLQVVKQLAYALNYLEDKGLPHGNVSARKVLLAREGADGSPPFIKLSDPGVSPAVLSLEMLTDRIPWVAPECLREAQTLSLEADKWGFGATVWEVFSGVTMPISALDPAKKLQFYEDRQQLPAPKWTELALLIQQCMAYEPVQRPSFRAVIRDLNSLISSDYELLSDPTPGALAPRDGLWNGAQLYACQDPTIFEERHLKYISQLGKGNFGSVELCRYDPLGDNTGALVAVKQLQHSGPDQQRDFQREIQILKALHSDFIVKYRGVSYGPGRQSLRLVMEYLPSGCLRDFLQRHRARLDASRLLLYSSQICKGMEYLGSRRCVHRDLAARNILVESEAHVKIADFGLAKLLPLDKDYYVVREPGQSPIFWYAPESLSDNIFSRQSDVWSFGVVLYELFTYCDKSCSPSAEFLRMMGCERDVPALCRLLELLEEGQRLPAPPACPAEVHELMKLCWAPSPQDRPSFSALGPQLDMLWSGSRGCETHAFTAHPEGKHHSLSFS
# [21] = AUC in C57BL/6 mouse at 10 mg/kg, po by LC/MS-MS analysis; format: ADME, organism-based; parameters: dose 10 mg/kg, route po; details: in vivo
# [22] = target: T2, Non-receptor tyrosine-protein kinase TYK2; test: Inhibition of TYK2 JH2 (unknown origin)
# [23] = Cmax in C57BL/6 mouse at 10 mg/kg, po by LC/MS-MS analysis; format: ADME, organism-based; parameters: dose 10 mg/kg, route po; details: in vivo
# [24] = target: T3, Tyrosine-protein kinase JAK2; test: Inhibition of JAK2 (unknown origin)
# [25] = target: T2, Non-receptor tyrosine-protein kinase TYK2; test: Inhibition of TYK2 JH1 (unknown origin)
# [26] = target: T5, Tyrosine-protein kinase JAK3; test: Inhibition of JAK3 (unknown origin) using ULight - JAK (Tyr1023) substrate incubated for 60 mins in presence of ATP by envision plate reader based analysis
# [27] = target: T4, Tyrosine-protein kinase JAK1; test: Inhibition of JAK1 (unknown origin) using ULight - JAK (Tyr1023) substrate incubated for 60 mins in presence of ATP by envision plate reader based analysis
# [28] = target: T2, Non-receptor tyrosine-protein kinase TYK2; test: Inhibition of TYK2 in HEK-Blue IL-23 cells assessed as reduction in SEAP reporter gene expression by Quanti-blue assay; format: cell-based
# [29] = target: T1, JAK2/TYK2; test: Inhibition of JAK2/TYK2 signal transduction pathway in human NK92 cells assessed as IL-12 induced STAT4 phosphorylation; format: cell-based
# [30] = target: T2, Non-receptor tyrosine-protein kinase TYK2; test: Inhibition of TYK2 signal transduction pathway in human TF-1 cells assessed as reduction in GM-CSF induced p-STAT5 level; format: cell-based
# [31] = target: T2, Non-receptor tyrosine-protein kinase TYK2; test: Inhibition of TYK2 JH2 (561 to 860 residues) (unknown origin) by HTRF assay
# [32] = target: T4, Tyrosine-protein kinase JAK1; test: Inhibition of JAK1 JH2 (unknown origin)
# [33] = target: T1, JAK2/TYK2; test: Inhibition of JAK2/TYK2 in HEK-Blue IL-23 cells assessed as reduction in SEAP reporter gene expression incubated for 21 hrs by Quanti-blue assay; format: cell-based
# [34] = target: JAK1/TYK2 (Homo sapiens, UniProt P23458+P29597); test: Inhibition of JAK2/TYK2 in HEK293T cells co-expressing luciferase gene under control of ISRE assessed as reduction in IFNalpha expression incubated for 6 hrs by one-glo reagent based luciferase reporter gene assay; format: cell-based
# [35] = target: T3, Tyrosine-protein kinase JAK2; test: Inhibition of JAK2 in human TF-1 cells assessed as reduction of STAT5 phosphorylation by ELISA assay; format: cell-based
# [36] = target: T2, Non-receptor tyrosine-protein kinase TYK2; test: Inhibition of TYK2 signal transduction pathway in human PBMC cells assessed as IFNalpha induced p-STAT5 level; format: cell-based
# [37] = Half life in C57BL/6 mouse at 10 mg/kg, po by LC/MS-MS analysis; format: ADME, organism-based; details: in vivo
# [38] = target: T2, Non-receptor tyrosine-protein kinase TYK2; test: Binding affinity to TYK2 JH2 (unknown origin)
# [39] = Oral bioavailability in C57BL/6 mouse at 10 mg/kg by LC/MS-MS analysis; format: ADME, organism-based; details: in vivo
# T4 sequence (P23458 whole entry): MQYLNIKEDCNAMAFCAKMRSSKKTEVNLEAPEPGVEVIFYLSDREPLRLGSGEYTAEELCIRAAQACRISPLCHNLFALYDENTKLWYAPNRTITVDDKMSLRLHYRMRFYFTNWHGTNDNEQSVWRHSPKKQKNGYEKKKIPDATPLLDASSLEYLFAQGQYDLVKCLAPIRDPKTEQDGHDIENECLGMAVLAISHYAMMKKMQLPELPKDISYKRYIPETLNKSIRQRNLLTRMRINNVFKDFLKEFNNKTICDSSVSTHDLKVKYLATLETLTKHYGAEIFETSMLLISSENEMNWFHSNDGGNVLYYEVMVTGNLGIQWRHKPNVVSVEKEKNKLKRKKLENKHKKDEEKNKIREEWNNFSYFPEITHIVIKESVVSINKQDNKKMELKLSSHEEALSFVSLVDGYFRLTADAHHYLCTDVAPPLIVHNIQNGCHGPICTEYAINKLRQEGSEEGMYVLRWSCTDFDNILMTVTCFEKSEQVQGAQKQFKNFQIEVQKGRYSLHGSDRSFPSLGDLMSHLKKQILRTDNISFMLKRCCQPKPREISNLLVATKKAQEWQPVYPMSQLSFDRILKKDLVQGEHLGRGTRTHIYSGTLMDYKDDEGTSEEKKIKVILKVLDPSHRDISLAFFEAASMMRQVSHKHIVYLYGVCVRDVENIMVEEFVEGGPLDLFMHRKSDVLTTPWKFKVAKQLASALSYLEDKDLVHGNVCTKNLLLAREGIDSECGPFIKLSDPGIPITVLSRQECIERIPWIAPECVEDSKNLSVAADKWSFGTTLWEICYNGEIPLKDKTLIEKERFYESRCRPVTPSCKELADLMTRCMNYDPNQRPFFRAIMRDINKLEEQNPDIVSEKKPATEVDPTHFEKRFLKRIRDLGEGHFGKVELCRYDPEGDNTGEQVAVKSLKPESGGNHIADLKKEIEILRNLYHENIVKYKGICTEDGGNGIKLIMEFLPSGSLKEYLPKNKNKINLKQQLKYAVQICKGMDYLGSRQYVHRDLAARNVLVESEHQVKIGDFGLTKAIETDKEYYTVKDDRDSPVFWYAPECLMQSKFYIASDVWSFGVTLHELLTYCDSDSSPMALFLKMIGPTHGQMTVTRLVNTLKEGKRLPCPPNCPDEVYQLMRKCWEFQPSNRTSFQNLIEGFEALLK
# T1 sequence (O60674 whole entry, the tested form may be a part): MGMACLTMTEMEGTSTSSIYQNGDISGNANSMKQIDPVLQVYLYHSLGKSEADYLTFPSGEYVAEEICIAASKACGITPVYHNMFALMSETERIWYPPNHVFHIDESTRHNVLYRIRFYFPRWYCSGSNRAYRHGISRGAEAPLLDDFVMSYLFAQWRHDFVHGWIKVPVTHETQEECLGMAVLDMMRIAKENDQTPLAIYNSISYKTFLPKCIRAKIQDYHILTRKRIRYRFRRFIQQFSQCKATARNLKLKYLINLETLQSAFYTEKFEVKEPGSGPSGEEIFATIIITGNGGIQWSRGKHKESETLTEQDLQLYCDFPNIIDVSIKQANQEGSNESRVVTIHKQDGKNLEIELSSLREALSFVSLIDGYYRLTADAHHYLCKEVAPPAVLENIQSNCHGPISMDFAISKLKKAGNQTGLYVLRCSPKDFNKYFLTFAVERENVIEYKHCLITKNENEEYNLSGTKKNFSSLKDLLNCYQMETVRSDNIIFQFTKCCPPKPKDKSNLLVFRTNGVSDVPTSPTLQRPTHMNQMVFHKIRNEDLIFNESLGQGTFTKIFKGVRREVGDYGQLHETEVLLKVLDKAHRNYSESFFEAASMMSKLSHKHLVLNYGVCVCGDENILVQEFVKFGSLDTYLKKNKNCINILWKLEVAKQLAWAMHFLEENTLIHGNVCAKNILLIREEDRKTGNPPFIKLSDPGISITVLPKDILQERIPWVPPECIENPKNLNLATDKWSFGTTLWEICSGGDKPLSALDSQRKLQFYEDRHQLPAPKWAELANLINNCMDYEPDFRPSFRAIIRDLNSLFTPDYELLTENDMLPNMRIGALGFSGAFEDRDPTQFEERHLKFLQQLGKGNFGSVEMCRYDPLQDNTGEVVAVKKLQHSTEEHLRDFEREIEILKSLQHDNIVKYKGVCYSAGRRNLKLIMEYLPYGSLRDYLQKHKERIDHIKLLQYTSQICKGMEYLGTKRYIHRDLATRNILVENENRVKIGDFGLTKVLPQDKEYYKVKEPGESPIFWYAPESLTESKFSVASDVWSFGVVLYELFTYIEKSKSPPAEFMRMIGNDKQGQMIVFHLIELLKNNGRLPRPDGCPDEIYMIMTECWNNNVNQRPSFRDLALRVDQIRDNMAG
# T1 sequence (P29597 whole entry, the tested form may be a part): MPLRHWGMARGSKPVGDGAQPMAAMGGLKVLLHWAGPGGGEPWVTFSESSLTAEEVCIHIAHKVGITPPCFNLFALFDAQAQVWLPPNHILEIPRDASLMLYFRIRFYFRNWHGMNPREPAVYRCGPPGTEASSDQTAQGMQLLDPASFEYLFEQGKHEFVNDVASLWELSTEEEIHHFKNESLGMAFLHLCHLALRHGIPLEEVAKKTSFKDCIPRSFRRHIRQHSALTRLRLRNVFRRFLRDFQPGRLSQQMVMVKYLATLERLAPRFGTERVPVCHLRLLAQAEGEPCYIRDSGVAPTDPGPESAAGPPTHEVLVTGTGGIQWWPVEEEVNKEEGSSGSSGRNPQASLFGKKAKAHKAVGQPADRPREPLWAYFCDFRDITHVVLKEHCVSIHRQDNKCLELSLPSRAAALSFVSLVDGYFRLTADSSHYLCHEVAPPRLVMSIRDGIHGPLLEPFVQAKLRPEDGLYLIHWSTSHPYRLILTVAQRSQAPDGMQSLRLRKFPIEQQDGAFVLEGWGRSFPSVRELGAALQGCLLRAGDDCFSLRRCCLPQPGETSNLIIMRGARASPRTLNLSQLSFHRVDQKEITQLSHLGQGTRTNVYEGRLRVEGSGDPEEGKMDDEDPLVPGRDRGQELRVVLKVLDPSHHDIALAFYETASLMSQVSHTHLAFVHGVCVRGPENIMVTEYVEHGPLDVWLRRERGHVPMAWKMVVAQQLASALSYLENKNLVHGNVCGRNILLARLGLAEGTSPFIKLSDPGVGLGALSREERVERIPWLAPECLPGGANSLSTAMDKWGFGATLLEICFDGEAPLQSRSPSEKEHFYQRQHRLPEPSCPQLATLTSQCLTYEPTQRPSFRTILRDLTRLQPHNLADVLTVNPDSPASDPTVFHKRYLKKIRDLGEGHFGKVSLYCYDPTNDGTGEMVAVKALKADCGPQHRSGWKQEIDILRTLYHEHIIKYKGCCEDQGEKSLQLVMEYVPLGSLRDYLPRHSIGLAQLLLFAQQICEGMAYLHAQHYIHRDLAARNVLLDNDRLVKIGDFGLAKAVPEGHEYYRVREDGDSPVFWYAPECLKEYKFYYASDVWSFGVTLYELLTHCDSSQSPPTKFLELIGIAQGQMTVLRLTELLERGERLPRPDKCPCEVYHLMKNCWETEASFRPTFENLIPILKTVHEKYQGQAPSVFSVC
# T3 sequence (O60674 whole entry): as the sequence (O60674 whole entry, the tested form may be a part) above
# T2 sequence (P29597 whole entry, the tested form may be a part): as the sequence (P29597 whole entry, the tested form may be a part) above
# Chain of JAK1/TYK2 (P23458 whole entry): as the sequence (P23458 whole entry) above
# Chain of JAK1/TYK2 (P29597 whole entry): as the sequence (P29597 whole entry, the tested form may be a part) above
structure (smiles),measurement,setting,value
N#Cc1ccc(-n2[nH]c(=O)c3cnc(Nc4ccc(F)cn4)cc32)cc1Cl,IC50,[1],< 10000 nM
same,IC50,[2],> 90000 nM
same,IC50,[3],> 90000 nM
same,IC50,[4],< 10000 nM
same,IC50,[5],> 90000 nM
CNc1cc(Nc2cccn(-c3cnc(C(C)(C)O)cn3)c2=O)nc2c(C(=O)NC3CCC3)cnn12,IC50,[6],< 500 nM
same,Kd,[7],< 0.2 nM
same,inhibition,[8],< 50%
same,IC50,[9],< 500 nM
same,Kd,[10],5000 nM
same,inhibition,[11],< 50%
CO[C@@]1(c2cc(C)cc(-n3nc(-c4cnn(C)c4)c4cnc(NC(N)=O)cc43)n2)CCOC1,IC50,[12],9 nM
same,IC50,[13],3 nM
same,Ki,[14],2 nM
[2H]C([2H])([2H])NC(=O)c1nnc(Nc2ccc(N3CC(O)C3)cn2)cc1Nc1cccc(-c2ncn(C)n2)c1OC,Kd,[7],0.005 nM
same,IC50,[15],83 nM
[2H]C([2H])([2H])NC(=O)c1nnc(NC(=O)C2CC2)cc1Nc1cccc(-c2ncc(-c3cccnc3C(F)(F)F)cn2)c1OC,remaining at 1 h,[16],100%
same,Cmax,[17],12500 ng/mL
same,half-life,[18],6.26 h
CO[C@@]1(c2cc(C)cc(-n3cc(C4CCN(C)CC4)c4cnc(NC(N)=O)cc43)n2)CCOC1,IC50,[19],> 10000 nM
same,IC50,[20],> 10000 nM
same,AUC,[21],16600 ng·h/mL
same,IC50,[22],2.1 nM
same,Cmax,[23],2740 ng/mL
same,IC50,[24],> 10000 nM
same,IC50,[25],> 10000 nM
Cn1cc(-c2cn3ncnc3c(-c3ccn([C@]4(CC#N)C[C@@H](C#N)C4)c3)n2)cn1,IC50,[26],> 5000 nM
same,IC50,[27],> 5000 nM
CO[C@@]1(c2cc(C)cc(-n3cc(C4CC4)c4cnc(NC(C)=O)cc43)n2)CCOC1,AUC,[21],10900 ng·h/mL
same,IC50,[22],0.6 nM
same,Cmax,[23],2060 ng/mL
same,IC50,[24],> 10000 nM
same,IC50,[25],> 10000 nM
CNC(=O)c1nnc(NC(=O)N2CCC2)cc1Nc1cccc(-c2ncn(C)n2)c1OC,Kd,[7],0.028 nM
same,IC50,[15],54 nM
[2H]C([2H])([2H])NC(=O)c1nnc(NC(=O)[C@H]2CC23CC3)cc1Nc1ncc(OCCOC)cc1S(C)(=O)=O,IC50,[28],< 1 nM
CO[C@@]1(c2cc(C)cc(-c3cc(C)n4cnc(NC(N)=O)cc34)n2)CCOC1,IC50,[12],8 nM
same,IC50,[13],2 nM
same,Ki,[14],2 nM
[2H]C([2H])([2H])NC(=O)c1nnc(NC(=O)C2CC2)cc1Nc1ncc(C2CC2)cc1S(C)(=O)=O,IC50,[28],< 1 nM
COCCOc1cc(Nc2cc(NC(C)=O)ncc2-c2ccccn2)nc(S(C)(=O)=O)c1,IC50,[29],1.21 nM
same,IC50,[30],> 10000 nM
same,IC50,[31],0.018 nM
same,IC50,[32],1.2 nM
[2H]C([2H])([2H])Nc1cc(Nc2cc(Cl)cn(-c3ccccn3)c2=O)nn2c(C(=O)N[C@@H]3C[C@@H]3F)cnc12,EC50,[33],< 1 nM
same,EC50,[34],< 10 nM
same,EC50,[35],> 10000 nM
COc1cccc(-n2[nH]c(=O)c3cnc(Nc4cc(C)nc(C)n4)cc32)c1F,IC50,[1],< 10000 nM
same,IC50,[2],> 90000 nM
same,IC50,[3],> 90000 nM
same,IC50,[4],< 10000 nM
same,IC50,[5],> 90000 nM
[2H]C([2H])([2H])NC(=O)c1nnc2cc1Nc1cc(cc(-c3ccn(C)n3)c1OC)CCOCc1cccc(n1)N2,IC50,[36],≤ 50 nM
same,IC50,[19],> 10000 nM
same,IC50,[20],> 10000 nM
same,half-life,[37],3.01 h
same,IC50,[24],> 10000 nM
same,Kd,[38],< 1 nM
same,IC50,[25],> 10000 nM
same,bioavailability,[39],147%
CNc1cc(Nc2cccnc2OC)nc2c(C(=O)NCC3(CO)CC3)cnn12,IC50,[6],< 500 nM
same,Kd,[7],< 0.2 nM
same,inhibition,[8],< 50%
same,IC50,[9],< 500 nM
same,Kd,[10],5000 nM
same,inhibition,[11],< 50%
CNC(=O)c1cnc2cc1Nc1cc(cc(-c3ccn(C)n3)c1OC)CCOCc1nc(ccc1C)N2,IC50,[36],≤ 50 nM
same,IC50,[19],> 10000 nM
same,IC50,[20],> 10000 nM
same,half-life,[37],2.26 h
same,IC50,[24],> 10000 nM
same,Kd,[38],< 1 nM
same,IC50,[25],> 10000 nM
same,bioavailability,[39],148%
